{
  "source": "patent US20170266197A1",
  "about": "“METHODS AND COMPOSITIONS FOR TREATING HEPATITIS B VIRUS INFECTIONS” (Indiana University Research and Technology Corporation, priority 2014, published 2017)",
  "origin": "cited, not measured here",
  "test_system": "chronic hepatitis B infection",
  "data": [
    {"substance": "alpha interferon", "values": [
      {"measurement": "patients who show a long term benefit", "setting": "many patients relapse after treatment is stopped", "value": "about 30%"},
      {"measurement": "patients who respond to the treatment", "setting": "of the chronic carriers obtaining this therapy", "value": "about 40%"},
      {"measurement": "viral disappearance in treated patients", "setting": "treated patients", "value": "10-20%"}
    ]}
  ]
}
